Data as given in patent publication US9745339B2 (GRAFFINITY PHARMACEUTICALS GMBH, priority 2012, dated 2017).

Experiments:
Bevacizumab [1] = molecular target: T1, Bevacizumab (Homo sapiens, UniProt P01857); assay: Langmuir isotherms by batch adsorption; format: binding; details: for Kd: Bevacizumab 0.05-5 mg/ml in PBS pH 7.3, 25° C., at least 3 h, read-out: kd (dissociation constant, Langmuir isotherm) (converted); for qm (maximum capacity): mg Bevacizumab per ml of resin, Langmuir isotherm
T1 construct: 0.5 mg/ml IgG in PBS pH 7.3; ligand immobilized on SEPHAR; Bevacizumab Yield; other: mass eluted (glycine pH 2.5) / mass injected; kd (dissociation constant, Langmuir isotherm); other: Bevacizumab 0.05-5 mg/ml in PBS pH 7.3, 25° C., at least 3 h; qm (maximum capacity); other: mg Bevacizumab per ml of resin; Langmuir isotherm; t0; fused on or other part: Humanized anti-VEGF-A VH domain joined N-terminally to the IGHG1 constant region (engineered, no UniProt entry)
Experimental: Experiments were performed with Bevacizumab as antibody. Parameters of Langmuir isotherms for purified antibody were determined by batch adsorption experiments in 96-well microtiter plates. In each well, 10 μl of sorbent slurry (50% v/v) were mixed with 100 μl of protein solution. Initial concentrations varied from 0.05-5 mg/ml in phosphate-buffered saline (0.15 M NaCl, 20 mM phosphate buffer, pH 7.3; PBS). Reactions were agitated vigorously at 25° C. for at least 3 h. Afterwards, antibody concentration in the supernatants were measured by Bradford assay. Data was evaluated by direct fitting of the values with the Langmuir isotherm equation (1).
Parameters of Langmuir isotherms, i.e. dissociation constants Kd and maximum capacities qm, were determined from the measured concentrations in the supernatants. Parameters were estimated by numerical fitting of the model equation derived by Chase (1)

Palivizumab = assay: Microtiter plate chromatography of resins: binding and elution of Palivizumab; details: fraction of injected protein bound; 0.5 mg/ml IgG in PBS pH 7.3
Outline: (§1)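 About 30 μl resin columns loaded with 3.3 cv IgG at 0.5 mg ml^−1 in PBS (or undiluted HCP), washed with 5 cv PBS, eluted with 5 cv glycine pH 2.5. Fractions quantified by Bradford; bound fraction = (mi−mft)/mi, yield = me/mi.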

Bevacizumab [2] = molecular target: T1, Bevacizumab; assay: Uptake kinetics by batch adsorption (time-scale of binding); details: time after which 80% of equilibrium saturation occurred; 0.75 mg/ml Bevacizumab in PBS, 25° C.
Experimental: Uptake kinetics was investigated similarly by batch adsorption in 96-well filter plates. Again, 10 μl of sorbent slurry (50% v/v) were mixed with 100 μl of protein solution. […] Reactions were agitated vigorously at 25° C. for up to 80 min. Supernatants were separated rapidly by spinning through filters after 2.5, 5, 10, 20, 40 and 80 minutes and sampled for analysis. Concentrations of the antibody were analyzed by Bradford assay.
For determination of t0.8, measured concentrations in the supernatant were interpolated by fitting of double-exponentials and values of t0.8 were read out from graphs (2).

host cell proteins (HCP) = assay: Microtiter plate chromatography of resins: binding of host cell proteins; design: species or system CHO cell culture; details: fraction of injected undiluted host cell proteins bound
Outline: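 Undiluted HCP-containing flowthrough from protein A chromatography of CHO serum-free culture was loaded onto ~30 µl packed resin columns in microtiter-plate format. Columns were washed with 5 cv PBS and eluted with glycine pH 2.5, and fractions were quantified by Bradford. Bound fraction = (injected − flowthrough mass)/injected mass.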

Tocilizumab = assay: Microtiter plate chromatography of resins: binding and elution of Tocilizumab; details: fraction of injected protein bound; 0.5 mg/ml IgG in PBS pH 7.3
Outline: as §1

Cetuximab = assay: Microtiter plate chromatography of resins: binding and elution of Cetuximab; details: fraction of injected protein bound; 0.5 mg/ml IgG in PBS pH 7.3
Outline: as §1

[3] = tested on: poly-IgG from human serum (h-poly-IgG); assay: Microtiter plate chromatography of resins: binding and elution of human poly-IgG; details: fraction of injected protein bound; 0.5 mg/ml IgG in PBS pH 7.3
Outline: as §1

Bevacizumab [4] = molecular target: T1, Bevacizumab; assay: Microtiter plate chromatography of resins: binding and elution of Bevacizumab; details: for Bevacizumab Bound: fraction of injected protein bound, 0.5 mg/ml IgG in PBS pH 7.3, ligand immobilized on SEPHAROSE 4 FF; for Bevacizumab Yield: mass eluted (glycine pH 2.5) / mass injected
Outline: (§2)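 About 30 μl packed resin columns loaded with 3.3 cv IgG at 0.5 mg ml^−1 in PBS or undiluted HCP, washed with 5 cv PBS, eluted with 5 cv glycine pH 2.5. Protein in fractions by Bradford. Bound fraction = (injected − flowthrough)/injected; yield = eluted/injected; selectivity = Bevacizumab bound fraction / HCP bound fraction, truncated beyond 10.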

[5] = Alkaline stability of ligands in 0.5 M sodium hydroxide; format: physicochemical; details: 25° C., 8 days, hydrolysis monitored by LC-MS, read-out: t0.5 (half-life) (converted)
Experimental: A subset of ligands from Example 1 was tested for its alkaline stability. Ligands were treated with 0.5 M sodium hydroxide at 25° C. for 8 days. Hydrolysis was monitored by LC-MS analysis.

Bevacizumab [6] = assay: Microtiter plate chromatography of resins: binding and elution of Bevacizumab; details: fraction of bound Bevacizumab divided by fraction of bound HCP; truncated for values beyond 10
Outline: as §2

Row | SMILES | Kd (Bevacizumab [1]) [µM] | qm (maximum capacity) (Bevacizumab [1]) [mg/mL] | Palivizumab Bound (Palivizumab) [%] | t0.8 (time-scale of binding) (Bevacizumab [2]) [min] | HCP Bound (host cell proteins (HCP)) [%] | Tocilizumab Bound (Tocilizumab) [%] | Cetuximab Bound (Cetuximab) [%] | h-poly-IgG Bound [3] [%] | Bevacizumab Bound (Bevacizumab [4]) [%] | Bevacizumab Yield (Bevacizumab [4]) [%] | half-life [5] [days] | Selectivity (Bevacizumab [6])
1 | N[C@@H](CCC(=O)NCCOCCOCCn1cnc2cc(C(=O)Nc3nnc(-c4ccco4)s3)ccc21)C(=O)NCCOCCOCCn1cnc2cc(C(=O)Nc3nnc(-c4ccco4)s3)ccc21 [Ligand L53] | 131 | 34 | 100 | 11.8 | 11 | 100 | 100 | 100 | 100 | 96 | – | –
2 | Cn1c(CCCCCN)nc2cc(C(=O)Nc3nnc(-c4ccco4)s3)ccc21 [Ligand L31, 2-(5-Amino-1-pentyl)-1-methylbenzimidazole-5-carboxylic acid N-[5-(2-furyl)-1,3,4-thiadiazol-2-yl]amide] | 117 | 45 | 100 | 5.3 | 20 | 100 | 100 | 100 | 100 | 95 | – | –
3 | Cc1nsc(NC(=O)c2ccc3c(c2)ncn3CCCN)n1 [Ligand L36, 1-(3-Amino-1-propyl)benzimidazole-5-carboxylic acid N-(3-methyl-1,2,4-thiadiazol-5-yl) amide] | 740 | 35 | 93 | – | 9 | 90 | 99 | 81 | 100 | 104 | > 41.6 | –
4 | Cc1nc2cc(C(=O)Nc3nnc(-c4ccco4)s3)ccc2n1CCOCCOCCNC(=O)CC[C@H](N)C(=O)NCCOCCOCCn1c(C)nc2cc(C(=O)Nc3nnc(-c4ccco4)s3)ccc21 [Ligand L54] | 46.9 | 35 | 100 | 8.4 | 4 | 100 | 100 | 100 | 100 | 95 | – | –
5 | Cn1nc(NC(=O)c2ccc3c(c2)ncn3CCCN)c2ccccc21 [Ligand L02, 1-(3-Amino-1-propyl)benzimidazole-5-carboxylic acid N-(1-methyl-3-indazolyl) amide] | 324 | 41 | 91 | – | 28 | 100 | 100 | 100 | 100 | 101 | > 41.6 | –
6 | Cc1nc2cc(C(=O)Nc3nnc(-c4ccco4)s3)ccc2n1CCOCCOCCN | 333 | 45 | 100 | 8.9 | 0 | 100 | 100 | 100 | 100 | 97 | – | –
7 | Cc1nnc(NC(=O)c2ccc3c(c2)ncn3CCCN)s1 [Ligand L14, 1-(3-Amino-1-propyl)benzimidazole-5-carboxylic acid N-(2-methyl-1,3,4-thiadiazol-5-yl) amide] | 212 | 35 | 89 | – | 16 | 100 | 100 | 92 | 100 | 100 | > 41.6 | –
8 | NCCOCCOCCn1cnc2cc(C(=O)Nc3nnc(-c4ccco4)s3)ccc21 | 85.9 | 37 | 100 | 6.6 | 4 | 100 | 99 | 100 | 100 | 99 | – | –
9 | Cc1nc2cc(C(=O)Nc3nc(-c4ccncc4)cs3)ccc2n1CCCN [Ligand L51, 1-(3-Amino-1-propyl)-2-methylbenzimidazole-5-carboxylic acid N-[4-(4-pyridyl)thiazol-2-yl] amide] | – | 34 | 94 | 8.8 | 15 | 98 | 100 | 97 | 100 | 95 | – | –
10 | Cc1cc(NC(=O)c2ccc3c(c2)ncn3CCCN)nn1-c1ccccc1 [Ligand L11, 1-(3-Amino-1-propyl)benzimidazole-5-carboxylic acid N-(5-methyl-1-phenylpyrazol-3-yl) amide] | – | – | 61 | – | 51 | 96 | 98 | 88 | 100 | 99 | – | 2.0
11 | NCCOCCOCCn1cnc2cc(C(=O)Nc3nc(-c4ccccn4)cs3)ccc21 | – | 41 | 98 | 9.0 | 13 | 100 | 100 | 100 | 100 | 103 | – | –
